# According to ChEMBL document CHEMBL1687737, “Potent activity of a nucleoside reverse transcriptase inhibitor, 4'-ethynyl-2-fluoro-2'-deoxyadenosine, against human immunodeficiency virus type 1 infection in a model using human peripheral blood mononuclear cell-transplanted NOD/SCID Janus kinase 3 knockout mice” (Antimicrob Agents Chemother, 2009):
# Active and inactive are the calls of the source. No cut-off for these calls is given here.
# Tests used:
# Mus musculus [1] = assay: Toxicity in BALB/c mouse assessed as subacute whole-body effect at 50 mg/kg, ip bid for 14 days; format: organism-based; set-up: dose 50 mg/kg, route intraperitoneal; details: in vivo, 336 h
# Mus musculus [2] = assay: Toxicity in BALB/c mouse assessed as acute whole-body effect at 50 mg/kg, ip bid for 14 days; format: organism-based; set-up: dose 50 mg/kg, route intraperitoneal; details: in vivo, 336 h
# Mus musculus [3] = assay: Toxicity in BALB/c mouse assessed as change in body weight at 5 mg/kg, ip bid for 14 days; format: organism-based; set-up: dose 5 mg/kg, route intraperitoneal; details: in vivo, 336 h
# [4] = Drug level in BALB/c mouse blood at 20 mg/kg, ip; format: ADME, organism-based; set-up: dose 20 mg/kg, route intraperitoneal; details: read-out: Drug uptake
# Mus musculus [5] = assay: Toxicity in BALB/c mouse assessed as change in body weight at 50 mg/kg, ip bid for 14 days; format: organism-based; set-up: dose 50 mg/kg, route intraperitoneal; details: in vivo, 336 h
# Mus musculus [6] = assay: Toxicity in BALB/c mouse assessed as ruffled fur at 50 mg/kg, ip bid for 14 days; format: organism-based; set-up: dose 50 mg/kg, route intraperitoneal; details: in vivo, 336 h
# [7] = tested on: Human immunodeficiency virus 1; assay: Antiviral activity against HIV1 JR-FL infected in human PBMC transplanted NOD/SCID/Janus kinase 3 knockout mouse assessed as decrease of viral p24 antigen level in plasma at 0.5 mg/kg, ip bid for 15 days by ELISA; format: functional; details: route intraperitoneal
# [8] = tested on: Human immunodeficiency virus 1; assay: Antiviral activity against HIV1 JR-FL infected in human PBMC transplanted NOD/SCID/Janus kinase 3 knockout mouse assessed as decrease of p24 expressing human CD4+ cells in PBMC at 0.5 mg/kg, ip bid for 15 days by flow cytometry; format: functional, organism-based; set-up: dose 0.5 mg/kg
# [9] = Tmax in BALB/c mouse at 20 mg/kg, ip; format: ADME, organism-based; set-up: dose 20 mg/kg, route intraperitoneal; details: in vivo
# [10] = tested on: Human immunodeficiency virus 1; assay: Antiviral activity against HIV1 JR-FL infected in human PBMC transplanted NOD/SCID/Janus kinase 3 knockout mouse assessed as increase of CD4/CD8 ratio in PBMC at 0.5 mg/kg, ip bid for 15 days by flow cytometry; format: functional; details: route intraperitoneal
# Mus musculus [11] = assay: Toxicity in BALB/c mouse assessed as subacute whole-body effect at 5 mg/kg, ip bid for 14 days; format: organism-based; set-up: dose 5 mg/kg, route intraperitoneal; details: in vivo, 336 h
# [12] = tested on: Human immunodeficiency virus 1; assay: Antiviral activity against HIV1 JR-FL infected in human PBMC transplanted NOD/SCID/Janus kinase 3 knockout mouse assessed as increase of CD4/CD8 ratio in peritoneal cavity at 0.5 mg/kg, ip bid for 15 days by flow cytometry; format: functional, organism-based; set-up: dose 0.5 mg/kg
# [13] = tested on: Human immunodeficiency virus 1; assay: Antiviral activity against HIV1 JR-FL infected in human PBMC transplanted NOD/SCID/Janus kinase 3 knockout mouse assessed as increase of CD4/CD8 ratio in spleen at 0.5 mg/kg, ip bid for 15 days by flow cytometry; format: functional, organism-based; set-up: dose 0.5 mg/kg
# Mus musculus [14] = assay: Toxicity in BALB/c mouse assessed as acute whole-body effect at 5 mg/kg, ip bid for 14 days; format: organism-based; set-up: dose 5 mg/kg, route intraperitoneal; details: in vivo, 336 h
# [15] = tested on: Human immunodeficiency virus 1; assay: Antiviral activity against HIV1 JR-FL infected in human PBMC transplanted NOD/SCID/Janus kinase 3 knockout mouse assessed as decrease of p24 expressing human CD4+ cells in peritoneal cavity cells at 0.5 mg/kg, ip bid for 15 days by flow cytometry; format: functional, organism-based; set-up: dose 0.5 mg/kg
# Mus musculus [16] = assay: Toxicity in HIV1 JR-FL infected human PBMC transplanted NOD/SCID/Janus kinase 3 knockout mouse assessed as adverse effect at 0.5 mg/kg, ip bid for 15 days; format: organism-based; set-up: dose 0.5 mg/kg, route intraperitoneal; details: in vivo, 360 h
# [17] = tested on: Human immunodeficiency virus 1; assay: Antiviral activity against HIV1 JR-FL infected in human PBMC transplanted NOD/SCID/Janus kinase 3 knockout mouse assessed as decrease of viremia in plasma at 0.5 mg/kg, ip bid for 15 days by ELISA; format: functional, organism-based; set-up: dose 0.5 mg/kg
# [18] = tested on: Human immunodeficiency virus 1; assay: Antiviral activity against HIV1 JR-FL infected in human PBMC transplanted NOD/SCID/Janus kinase 3 knockout mouse assessed as decrease of p24 expressing human CD3+ cells in spleen cells at 0.5 mg/kg, ip bid for 15 days by flow cytometry; format: functional; set-up: scale not given: the % may be the effect or the level left; details: route intraperitoneal
smiles,measurement,setting,value
C#C[C@]1(CO)O[C@@H](n2cnc3c(N)nc(F)nc32)C[C@@H]1O [ISLATRAVIR],Activity,Mus musculus [1],Non-toxic
same,Activity,Mus musculus [2],Non-toxic
same,Activity,Mus musculus [3],Non-toxic
same,AUC,[4],4990 ng·h/mL
same,Activity,Mus musculus [5],Non-toxic
same,Activity,Mus musculus [6],Non-toxic
same,Activity,[7],2.1 ×10² pg/ml
same,Activity,[8],Active
same,Tmax,[9],10 min
same,Ratio,[10],0.65
same,Activity,Mus musculus [11],Non-toxic
same,Activity,[12],Active
same,Activity,[13],Active
same,Activity,Mus musculus [14],Non-toxic
same,Activity,[15],Active
same,Activity,Mus musculus [16],Non-toxic
same,Activity,[17],Active
same,Activity,[18],0.11%
